According to US6376521B1, “A3 adenosine receptor antagonists” (The United States of America as represented by the …, priority 1998, dated 2002):
Read-outs that look alike come from different tables or passages of the source. Each block holds one compound with its values, some of them ahead of it.

Tests used:
human A3 receptors = target: T1, human A3 receptors (Homo sapiens, UniProt P0DMS8); experiment: Displacement of specific [125I]AB-MECA binding at human A3 receptors expressed in HEK cells, in membranes; conditions: for rA1/hA3: ratio of affinities rat A1 vs human A3; for Ki: [125I]AB-MECA, HEK cell membranes, n = 3-4, read-out: hA3 Ki ± S.E.M.
T1 construct: expressed in transfected cells
T1 sequence (P0DMS8 1-318): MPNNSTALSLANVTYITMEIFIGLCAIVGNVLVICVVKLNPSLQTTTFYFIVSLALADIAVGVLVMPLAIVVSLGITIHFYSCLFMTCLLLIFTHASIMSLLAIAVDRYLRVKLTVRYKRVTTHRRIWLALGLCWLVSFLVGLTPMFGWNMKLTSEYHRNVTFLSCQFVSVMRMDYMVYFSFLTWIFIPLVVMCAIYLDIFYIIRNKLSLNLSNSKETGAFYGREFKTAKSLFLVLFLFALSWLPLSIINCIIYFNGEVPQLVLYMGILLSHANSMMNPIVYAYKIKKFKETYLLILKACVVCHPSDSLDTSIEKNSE

A2A adenosine receptors = target: T2, A2A adenosine receptors (Rattus norvegicus, UniProt P30543); experiment: Displacement of specific [3H]CGS 21680 binding in rat striatal membranes; conditions: for Ki: [3H]CGS 21680, rat striatal membranes, n = 3-6, read-out: rA2A Ki ± S.E.M.
T2 construct: from tissue
T2 sequence (P30543 whole entry): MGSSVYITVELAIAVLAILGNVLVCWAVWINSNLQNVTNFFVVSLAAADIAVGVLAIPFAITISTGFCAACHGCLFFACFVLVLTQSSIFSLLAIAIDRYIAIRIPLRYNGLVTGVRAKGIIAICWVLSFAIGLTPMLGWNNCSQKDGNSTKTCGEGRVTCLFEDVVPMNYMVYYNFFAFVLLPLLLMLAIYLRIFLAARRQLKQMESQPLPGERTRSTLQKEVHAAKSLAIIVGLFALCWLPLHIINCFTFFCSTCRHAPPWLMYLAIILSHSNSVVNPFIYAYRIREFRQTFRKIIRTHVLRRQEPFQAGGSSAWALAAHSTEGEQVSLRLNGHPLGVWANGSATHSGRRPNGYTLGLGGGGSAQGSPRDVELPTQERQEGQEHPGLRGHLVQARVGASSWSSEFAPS

A1 adenosine receptors = target: T3, A1 adenosine receptors (Rattus norvegicus, UniProt P25099); experiment: Displacement of specific [3H]R-PIA binding in rat brain membranes; conditions: for Ki: [3H]R-PIA, rat brain membranes, n = 3-5, read-out: rA1 Ki ± S.E.M.; for inhibition at 100 µM: read-out: rA1 % inhibition (percentage of specific binding displaced)
T3 construct: from tissue
T3 sequence (P25099 1-326): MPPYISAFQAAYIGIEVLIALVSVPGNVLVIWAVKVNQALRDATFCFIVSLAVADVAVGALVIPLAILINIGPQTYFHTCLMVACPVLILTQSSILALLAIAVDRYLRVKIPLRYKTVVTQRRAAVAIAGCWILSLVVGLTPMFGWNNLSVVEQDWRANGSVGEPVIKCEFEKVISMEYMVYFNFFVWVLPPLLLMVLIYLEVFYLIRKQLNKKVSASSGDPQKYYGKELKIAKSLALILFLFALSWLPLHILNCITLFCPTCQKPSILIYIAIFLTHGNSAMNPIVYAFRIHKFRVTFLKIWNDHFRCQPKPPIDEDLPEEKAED

rat A3 receptors = target: T4, rat A3 receptors (Rattus norvegicus, UniProt P28647); experiment: Displacement of specific [125I]AB-MECA binding at rat A3 receptors stably expressed in CHO cells; conditions: Table 4
T4 construct: expressed in transfected cells
T4 sequence (P28647 1-320): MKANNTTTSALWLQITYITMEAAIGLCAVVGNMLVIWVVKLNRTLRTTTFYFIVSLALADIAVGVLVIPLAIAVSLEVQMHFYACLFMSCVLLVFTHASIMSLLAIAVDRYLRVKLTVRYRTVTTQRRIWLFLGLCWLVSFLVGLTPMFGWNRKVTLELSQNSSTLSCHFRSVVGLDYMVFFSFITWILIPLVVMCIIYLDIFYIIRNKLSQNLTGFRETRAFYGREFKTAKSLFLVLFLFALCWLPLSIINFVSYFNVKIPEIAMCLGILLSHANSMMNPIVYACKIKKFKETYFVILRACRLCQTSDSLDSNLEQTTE

rA1/hA3 (human A3 receptors; Table 2): 8.20
SMILES: CCCOC(=O)c1c(-c2ccccc2)nc(CC)c(C(=O)SCC)c1CC [Compound 6]
rA2A displacement of specific binding (class d) (A2A adenosine receptors; Table 2, at 10^−5 M): d (10^−5) (Displacement of <10% of specific binding at the indicated concentration (M).)

rA1/hA3 (human A3 receptors; Table 2): 7400
SMILES: CCCCSC(=O)c1c(CC)nc(-c2cccc(Cl)c2)c(C(=O)OCCC)c1CC [Compound 7]
rA2A displacement of specific binding (class d) (A2A adenosine receptors; Table 2, at 10^−4 M): d (10^−4) (Displacement of <10% of specific binding at the indicated concentration (M).)

rA1/hA3 (human A3 receptors; Table 2): 590
SMILES: CCCOC(=O)c1c(-c2ccccc2F)nc(CC)c(C(=O)SCC)c1CCC [Compound 25]

rA1/hA3 (human A3 receptors; Table 2): 460
SMILES: CCCOC(=O)c1c(-c2ccccc2)nc(CC)c(C(=O)SCC(F)(F)F)c1CCC [Compound 16]

rA1/hA3 (human A3 receptors; Table 2): 280
SMILES: CCCOC(=O)c1c(-c2cccc(F)c2)nc(CC)c(C(=O)SCC)c1CCC [Compound 26]

rA1/hA3 (human A3 receptors; Table 2): 210
SMILES: CCCOC(=O)c1c(-c2ccccc2)nc(CC)c(C(=O)SCCO)c1CCC [Compound 12]

Ki (rat A3 receptors; [125I]AB-MECA, CHO cells, n = 3-5, read-out: rA3 Ki): 0.183 ± 0.033 µM
rA3/hA3 (rat A3 receptors; ratio of affinities at rat vs. human A3 receptors): 22
rA1/rA3 (rat A3 receptors; ratio of affinities rat A1 vs rat A3): 42
Ki (human A3 receptors; Table 2, compounds 33-58): 0.00829 µM
rA1/hA3 (human A3 receptors; Table 2): 940
Ki (A1 adenosine receptors; Table 2, compounds 33-58): 7.77 ± 1.83 µM
SMILES: CCCOC(=O)c1c(-c2ccccc2)nc(CC)c(C(=O)SCC)c1CC [Compound 49a, 5-Propyl 2,4-diethyl-3-(ethylsulfanylcarbonyl)-6-phenylpyridine-5-carboxylate]

rA1/hA3 (human A3 receptors; Table 2): ˜400
rA2A percentage of specific binding displaced (A2A adenosine receptors; Table 2, at 10^−4 M): 50% (10^−4)
SMILES: CCCOC(=O)c1c(-c2ccc(F)cc2)nc(CC)c(C(=O)SCC)c1CCC [Compound 27]

rA1/hA3 (human A3 receptors; Table 2): 13
SMILES: CCCc1c(C(=O)SCC)c(CC)nc(-c2ccccc2)c1C(=O)OCC(F)(F)C(F)(F)F [Compound 24]

rA1/hA3 (human A3 receptors; Table 2): 630
SMILES: CCCc1c(C(=O)SCC)c(CC)nc(-c2ccccc2)c1C(=O)OCCCF [Compound 23]

rA1/hA3 (human A3 receptors; Table 2): 150
SMILES: CCCOC(=O)c1c(-c2ccccc2)nc(CC)c(C(=O)SCCF)c1CCC [Compound 15]

The next lines start with the compound.

SMILES: CCOC(=O)c1c(C)nc(-c2ccccc2)c(C(=O)OCC)c1C=O [Compound 41, 3,5-Diethyl 2-methyl-4-formyl-6-phenylpyridine-3,5-dicarboxylate]
Ki (A1 adenosine receptors; Table 2, compounds 33-58): 9.56 ± 4.09 µM
Ki (A2A adenosine receptors; Table 2, compounds 33-58): 2.56 ± 0.13 µM

SMILES: CCOC(=O)c1c(C)nc(-c2ccccc2)c(C(=O)OCC)c1C(OC)OC [Compound 40, 3,5-Diethyl 2-methyl-4-(dimethoxymethyl)-6-phenylpyridine-3,5-dicarboxylate]
Ki (human A3 receptors; Table 2, compounds 33-58): 0.783 ± 0.154 µM
rA1/hA3 (human A3 receptors; Table 2): 2.5
Ki (A1 adenosine receptors; Table 2, compounds 33-58): 1.95 ± 0.43 µM
Ki (A2A adenosine receptors; Table 2, compounds 33-58): 2.88 ± 0.61 µM

SMILES: CCOC(=O)c1c(-c2ccccc2)nc(CC)c(C(=O)SCC)c1CCCN1C(=O)c2ccccc2C1=O [Compound 5]
hA3 percentage of specific binding displaced (human A3 receptors; Table 2, at 10^−6 M): 28% (10^−6)
rA2A displacement of specific binding (class d) (A2A adenosine receptors; Table 2, at 10^−4 M): d (10^−4) (Displacement of <10% of specific binding at the indicated concentration (M).)

SMILES: CCOC(=O)c1c(-c2ccccc2)nc(CC)c2c1CCCNC2=O [Compound 30]
rA2A displacement of specific binding (class d) (A2A adenosine receptors; Table 2, at 10^−4 M): d (10^−4) (Displacement of <10% of specific binding at the indicated concentration (M).)

SMILES: CCCOC(=O)C1=C(C)NC(c2ccccc2)=C(C(=O)OCC)C1C (racemic) [Compound 60, 3-Propyl 5-ethyl 2,4-dimethyl-6-phenyl-1,4-(±)-dihydropyridine-3,5-dicarboxylate]
Ki (A1 adenosine receptors; Table 3): 1.74 ± 3.1 µM
Ki (A2A adenosine receptors; Table 3): 28.9 ± 4.8 µM

SMILES: CCOC(=O)c1c(C)nc(-c2ccccc2)c(C(=O)OCC)c1CC [Compound 35, 3,5-Diethyl 2-methyl-4-ethyl-6-phenylpyridine-3,5-dicarboxylate]
Ki (human A3 receptors; Table 2, compounds 33-58): 0.176 ± 0.038 µM
rA1/hA3 (human A3 receptors; Table 2): 19
Ki (A1 adenosine receptors; Table 2, compounds 33-58): 3.36 ± 0.6 µM
Ki (A2A adenosine receptors; Table 2, compounds 33-58): 3.69 ± 1.25 µM

SMILES: CCOC(=O)C1=C(C)NC(c2ccccc2)=C(C(=O)OCC)C1C(OC)OC (racemic) [Compound 66, 3,5-Diethyl 2-methyl-6-phenyl-4-(dimethoxymethyl)-1,4-(±)-dihydropyridine-3,5-dicarboxylate]
Ki (human A3 receptors; Table 3): 15.3 ± 3.9 µM
rA1/hA3 (human A3 receptors; Table 3): >5
inhibition at 100 µM (A1 adenosine receptors; Table 3, at 10^−4 M): 32 ± 5%
rA2A displacement of specific binding (class d) (A2A adenosine receptors; Table 3, at 10^−4 M): d (10^−4) (Displacement of < 10% of specific binding at the indicated concentration (M).)

SMILES: CCOC(=O)C1=C(c2ccccc2)NC(C)=C(C(=O)SCCOC)C1CC (racemic) [Compound 63, 5-Ethyl 2-methyl-4-ethyl-6-phenyl-3-[(2-methoxy-(ethylsulfanylcarbonyl)]-1,4-(±)-dihydropyridine-5-carboxylate]
Ki (human A3 receptors; Table 3): 4.58 ± 0.35 µM
rA1/hA3 (human A3 receptors; Table 3): >10
rA1 % inhibition (percentage of specific binding displaced) (A1 adenosine receptors; Table 3, at 10^−4 M): 36 ± 14%
Ki (A2A adenosine receptors; Table 3): 12.5 ± 2.5 µM

SMILES: CCOC(=O)c1c(CC)nc(-c2ccccc2)c(C(=O)OCC)c1C [Compound 46, 3,5-Diethyl 2-ethyl-4-methyl-6-phenylpyridine-3,5-dicarboxylate]
Ki (human A3 receptors; Table 2, compounds 33-58): 0.121 ± 0.008 µM
rA1/hA3 (human A3 receptors; Table 2): 85
Ki (A1 adenosine receptors; Table 2, compounds 33-58): 10.3 ± 1.7 µM
Ki (A2A adenosine receptors; Table 2, compounds 33-58): 13.4 ± 4.2 µM

SMILES: CCOC(=O)c1c(-c2ccccc2)nc(C2CCC2)c(C(=O)SCC)c1CC [Compound 58, 5-Ethyl 2-cyclobutyl-4-ethyl-3-(ethylsulfanylcarbonyl)-6-phenylpyridine-5-carboxylate]
Ki (human A3 receptors; Table 2, compounds 33-58): 0.145 ± 0.044 µM
rA1/hA3 (human A3 receptors; Table 2): >500
rA1 percentage of specific binding displaced (A1 adenosine receptors; Table 2, at 10^−4 M): 30% (10^−4)
rA2A percentage of specific binding displaced (A2A adenosine receptors; Table 2, at 10^−4 M): 22% (10^−4)

SMILES: CCOC(=O)C1=C(C)NC(C2CCCC2)=C(C(=O)OCc2ccccc2)C1C#Cc1ccccc1 (racemic) [Compound 72, 3-Ethyl 5-benzyl 2-methyl-4-phenylethynyl-6-cyclopentyl-1,4(±)-dihydropyridine-3,5-dicarboxylate]
Ki (human A3 receptors; Table 3): 0.0505 µM
rA1/hA3 (human A3 receptors; Table 3): 340
Ki (A1 adenosine receptors; Table 3): 17.1 ± 4.3 µM
Ki (A2A adenosine receptors; Table 3): 7.16 ± 1.56 µM

SMILES: CCOC(=O)C1=C(CC)NC(c2ccccc2)=C(C(=O)OCC)C1C (racemic) [Compound 74, 3,5-Diethyl 2-ethyl-6-phenyl-4-methyl-1,4-(±)-dihydropyridine-3,5-dicarboxylate]
inhibition at 100 µM (A1 adenosine receptors; Table 3, at 10^−4 M): 20 ± 4%
rA2A displacement of specific binding (class d) (A2A adenosine receptors; Table 3, at 10^−4 M): d (10^−4) (Displacement of < 10% of specific binding at the indicated concentration (M).)

SMILES: CCOC(=O)C1=C(C)NC(C2CCCCC2)=C(C(=O)OCc2ccccc2)C1C#Cc1ccccc1 (racemic) [Compound 73, 3-Ethyl 5-benzyl 2-methyl-4-phenylethynyl-6-cyclohexyl-1,4-(±)-dihydropyridine-3,5-dicarboxylate]
inhibition at 100 µM (A1 adenosine receptors; Table 3, at 10^−4 M): 22 ± 2%
inhibition at 100 µM (A2A adenosine receptors; Table 3, at 10^−4 M, read-out: rA2A % inhibition (percentage of specific binding displaced)): 20%

SMILES: CCOC(=O)c1c(C)nc(-c2ccccc2)c(C(=O)OCC)c1C [Compound 33]
rA1/hA3 (human A3 receptors; Table 2): 1.7

SMILES: CCOC(=O)C1=C(C)NC(C2CC2)=C(C(=O)OCc2ccccc2)C1C#Cc1ccccc1 (racemic) [Compound 70, 3-Ethyl 5-benzyl 2-methyl-4-phenylethynyl-6-cyclopropyl-1,4-(±)-dihydropyridine-3,5-dicarboxylate]
inhibition at 100 µM (A1 adenosine receptors; Table 3, at 10^−4 M): 22 ± 1%
rA2A displacement of specific binding (class d) (A2A adenosine receptors; Table 3, at 10^−4 M): d (10^−4) (Displacement of < 10% of specific binding at the indicated concentration (M).)

SMILES: CCOC(=O)C1=C(C)NC(C2CCC2)=C(C(=O)OCc2ccccc2)C1C#Cc1ccccc1 (racemic) [Compound 71, 3-Ethyl 5-benzyl 2-methyl-4-phenylethynyl-6-cyclobutyl-1,4-(±)-dihydropyridine-3,5-dicarboxylate]
inhibition at 100 µM (A1 adenosine receptors; Table 3, at 10^−4 M): 36 ± 8%
rA2A displacement of specific binding (class d) (A2A adenosine receptors; Table 3, at 10^−4 M): d (10^−4) (Displacement of < 10% of specific binding at the indicated concentration (M).)

SMILES: CCOC(=O)C1=C(C)NC(c2ccccc2)=C(C(=O)OCC)C1CC (racemic) [Compound 61, 3,5-Diethyl 2-methyl-4-ethyl-6-phenyl-1,4-(±)-dihydropyridine-3,5-dicarboxylate]
Ki (A2A adenosine receptors; Table 3): 21.8 ± 7.8 µM

SMILES: CCCOC(=O)c1c(-c2ccccc2)nc(CC)c2c1CCOC2=O [Compound 29]
hA3 displacement of specific binding (class d) (human A3 receptors; Table 2, at 10^−4 M): d (10^−4) (Displacement of <10% of specific binding at the indicated concentration (M).)

SMILES: CCOC(=O)c1c(C)nc(-c2ccccc2)c(C(=O)OCC)c1C=Cc1ccccc1 [Compound 42]
Ki (A2A adenosine receptors; Table 2, compounds 33-58): 2.4 ± 0.22 µM
